Reference: the METLIN SMRT retention time set (Domingo-Almenara et al. 2019)

Assay: gradient 5% acetonitrile 3 min, to 50% in 2 min, to 85% in 15 min, held 3 min, 100 µL/min
Conditions: column: Zorbax Extend-C18 2.1 x 50 mm; eluents: water / acetonitrile, 0.1% formic acid
Outline: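 Each retention time is based on an adduct peak selected computationally and verified by manual inspection. Measurements used HPLC–quadrupole time-of-flight mass spectrometry in positive and negative ionization mode on mixtures of ~100 pure standards. Chromatography ran on a Zorbax Extend-C18 column (2.1 × 50 mm, 1.8 μm) at 100 μL/min with water and acetonitrile, each containing 0.1% formic acid, and dead and dwell volumes of 40 μL and 900 μL.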

SMILES | RP-LC retention time [s]
COc1cccc(CCC(=O)N2CCN(c3nc(CN4CCC(C)CC4)cs3)CC2)c1 | 681
Cc1oc(-c2[nH]ncc2C(=O)N2CCCC2)cc1S(=O)(=O)N1CCOCC1 | 619
O=C(Nc1cc(C(F)(F)F)cc(C(F)(F)F)c1)c1ccc(=O)[nH]n1 | 814
CC(C)(C)n1nnnc1C1CC2(CCOCC2)C(=O)N1Cc1ccc(F)cc1F (centres undefined) | 809
CCCc1ccc(S(=O)(=O)N2CCc3c(c(-c4nnc(SCC)n4CC)nn3C)C2)cc1 | 1090
O=C(c1cccs1)N1CCN(c2cc(Cl)ccc2Cl)CC1 | 1020
CCC(=O)NCc1csc(C2CCCN(C(=O)COc3ccccc3)C2)n1 (centres undefined) | 710
COC(=O)c1ccc(C(=O)OC)c(NC(=O)c2cnc3n(c2=O)CCS3)c1 | 700
CCc1ccccc1NC(=O)Cn1cnc2nc(N3CCCC(C(=O)NC4CC4)C3)sc2c1=O (centres undefined) | 692
Cc1ccc(C)c(CN2CCn3c(nn(C)c3=O)C2)c1 | 747
Cc1cc(N2CCN(S(=O)(=O)c3ccccc3)CC2)nc(NC2CCCCC2)n1 | 776
O=S(=O)(c1ccc(C2CCCCC2)cc1)N1CCOCC1 | 1050
O=C(NCc1ccccc1)C1CCc2nc(N3CCN(C(=O)C4CCC4)CC3)sc2C1 (centres undefined) | 578
CC1CC(=O)N(CC(=O)Nc2ccc(C(F)(F)F)cc2)c2ccccc2S1(=O)=O (centres undefined) | 904
O=S(=O)(NC1CCCCC1)c1cc(-c2noc(C3CCCC3)n2)cs1 | 1230
COc1cc(Cl)ccc1C(=O)N1CCN=C1N1CCN(c2ccccc2F)CC1 | 749
COCCCNC(=O)Cn1nc(-n2c(C)ccc2C)c2c(C)cc(C)nc21 | 874
Cc1ccc(NC(=O)N2CCC(c3nc(C(=O)N4CCOCC4)c(C)o3)CC2)c(C)c1 | 709
O=C(CN1C(=O)CCCc2cc(S(=O)(=O)N3CCCCCC3)ccc21)NCc1ccc(F)cc1 | 919
Cc1cc(C)cc(NC(=O)CN2C(=O)C3CCCCN3c3ccc(S(=O)(=O)N(C)C)cc32)c1 (centres undefined) | 994
CCCCOC(=O)C1=CN(Cc2ccccc2)S(=O)(=O)N=C1C | 1080
Cc1nn2c(CNS(=O)(=O)c3c(C)noc3C)c(C)nc2s1 | 640
CC(C)c1ccc(NC(=O)C2CCN(S(=O)(=O)c3cc(C(=O)N(C)C)cs3)CC2)cc1 | 958
CCN1CCN(CCNC(=O)CN2C(=O)C3CCCCN3c3ccc(C(=O)N4CCCC4)cc32)CC1 (centres undefined) | 591
CCN1c2ccc(F)cc2C(=O)NC12CCN(C(=O)c1ccc(F)c(F)c1)CC2 | 822
CCCNC(=O)C1CCN(c2ccc(SCC(=O)Nc3ccc(F)c(Cl)c3)nn2)CC1 | 692
CC(C)CC[C@@H](O)[C@](C)(O)C1CC[C@@]2(O)C3=CC(=O)[C@]4(O)C[C@@H](O)[C@@H](O)C[C@]4(C)C3[C@H](O)C[C@]12C (some centres undefined) | 638
Cn1c(N2CCC(C(=O)NCc3ccccn3)CC2)cc(=O)n(C)c1=O | 566

Other lines, results leading:

RP-LC retention time [s] | SMILES
774 | CCc1ccc(S(=O)(=O)N2CCCC(Cn3cnc4cccnc43)C2)cc1 (centres undefined)
796 | CCCn1c(=O)c(-c2ccc(C(=O)NCCOC)cc2)nc2cccnc21
689 | COc1cc(C(=O)Oc2ccc(/C=C/c3ccccn3)cc2)cc(OC)c1OC
671 | CC(C)c1ccc(NC(=O)Cn2nc3c4ccc(Cl)cc4ncn3c2=O)cc1
952 | CCOc1ccc2c(n1)CCN(C(=O)C1(c3ccccc3)CC1)C2
762 | O=C(COc1ccc2ccccc2c1)NCC1CCN(c2ncccn2)CC1
790 | O=C(COc1ccc(-c2nnc3n2CCCC3)cc1)N1CCc2ccccc21
683 | Cc1cccc2nnc(N3CCN(C(=O)c4cccc(Br)c4)CC3)n12
963 | COC(=O)c1sc(NC(=O)COc2ccc(Cl)cc2)nc1C
867 | COc1ccccc1C1(CNC(=O)Nc2cccc(Cl)c2)CCOCC1
784 | COC(=O)C1=C(C)NC(=O)NC1c1cn(-c2ccccc2)nc1-c1ccc(Cl)cc1 (centres undefined)
936 | CC(C)Cc1cc(-c2nn3c(COc4ccc(F)cc4)nnc3s2)n[nH]1
764 | CCC(Oc1ccc(=O)n(-c2ccc(F)cc2)n1)C(=O)Nc1ccc(C(C)=O)cc1 (centres undefined)
1190 | CCc1ccc(NC(=O)Cn2nc3cc(C)nc(Nc4ccc(C)c(F)c4)n3c2=O)cc1
612 | COc1ccc(NC(=O)NCCc2cn(C)c3ncccc23)cc1OC
967 | Cc1ccc(-c2nnc(Cc3nc(C(C)C)no3)o2)cc1C
737 | COc1ccc(NC(=O)c2cnc(N3CCN(c4ccccc4OC)CC3)nc2N)cc1
675 | CCN(CC)CCNC(=O)Cn1nc(C)c2nn(-c3ccc(F)cc3)c(-n3cccc3)c2c1=O

RP-LC retention time [s] | SMILES
1010 | Cc1ccc(NC(=O)c2cccn2Cc2noc(C3CC3)n2)cc1F
1150 | COc1ccc(-c2noc(-c3ccc(N4CCN(c5ncccn5)CC4)nc3)n2)cc1
721 | O=C(NCc1ccc(Cl)cc1)c1nc(N2CCOCC2)c2ccccc2n1
1290 | CCCn1c(=O)c(C)nc2cc(-c3noc(-c4ccc(OCC)cc4)n3)ccc21
818 | COc1cccc(-n2c(N3CCCC(C(=O)NC4CCCC4)C3)nc3ccsc3c2=O)c1 (centres undefined)
568 | O=C(NCCN1CCOCC1)c1ccc(-c2ccc(N3CCSCC3)nc2)cc1
968 | O=C(Cn1nc2c3cc(-c4ccc(F)cc4)nn3ccn2c1=O)N1CCCc2ccccc21
969 | O=C(CSc1nnc2c3cc(-c4ccccc4)nn3ccn12)Nc1cccc(C(F)(F)F)c1
752 | Cc1ccc(CNC(=O)C2CCN(S(=O)(=O)c3ccc4c(c3)CCCC(=O)N4)CC2)cc1
989 | Cc1ccc(-c2ccc(-n3nc(C)c(S(=O)(=O)N4CCCC4)c3C)nn2)cc1
942 | Cc1nn2c(CNS(=O)(=O)c3cccc(Cl)c3C)c(-c3ccccc3)nc2s1
660 | COc1cccc(-c2noc3ncnc(N4CCN(c5ccccn5)CC4)c23)c1
1150 | COc1ccc(-c2noc(-c3ccc(NCc4ccc(C)o4)nc3)n2)cc1
923 | CC(=O)c1ccc(NC(=O)Cn2cccc2-c2nc(-c3ccc4c(c3)OCO4)no2)cc1
855 | COc1ccc(N2CC(C(=O)N3CCC(c4noc(-c5ccccc5)n4)CC3)CC2=O)cc1 (centres undefined)
822 | Cc1c(O)cnc2nn(-c3ccccc3)c(=N)n12
828 | O=C(Nc1ccc(F)cc1)N1CCC(n2cnc3ccc(Cl)cc3c2=O)CC1
824 | COc1ccc(NC(=O)C2CCCN2S(=O)(=O)c2cc3c(cc2C)NC(=O)C(C)O3)cc1Cl (centres undefined)
